From patent US8399452B2, “Dibenzo[b,f][1,4]oxazepin-11-yl-N-hydroxybenzamides as HDAC inhibitors” (Methylgene Inc., priority 2006, dated 2013)
Where two headings read alike, the source gives them in different places.

Legend:
[1] = target: histone deacetylase (HDAC Enzyme); assay: Inhibition of Histone Deacetylase Enzymatic Activity (Boc-Lys(Ac)-AMC, Fluor-de-Lys developer); assay type: biochemical
Description: The following protocol is used to assay the compounds of the invention.
The mixture is pre-incubated for 5 minutes at room temperature. The reaction is started by bringing the temperature to 37° C. and adding 16 μl substrate. Total reaction volume is 50 μl.
In the Tables 8, 9 and 10, A≦[…]<B≦0.1 μM; 0.1 μM<C≦1 μM; and 1 μM<D≦10 μM.

[2] = system: HDAC in primary mouse cortical neurons; assay: Whole-Cell Histone Deacetylase (HDAC) Inhibition Assay in Primary Mouse Cortical Cultures; assay type: cell-based
Description: Primary neocortical cultures are established through the dissection of the neocortex from E17 embryos harvested from time-pregnant Balb/C mice. Following dissection, the neocortical tissue specimens undergo digestion by incubation at 37° C. for 10 minutes in dissection medium (1×HBSS/10 mM HEPES/1 mM Sodium Pyruvate) supplemented with (0.25%) Trypsin and (0.1%) DNase I. Digested tissue is washed and resuspended in plating medium (NeuroBasal/10% HS/0.5 mM L-Glutamine (Invitrogen Corporation)) for trituration. Additional plating medium is added, and the contents are passed over a 70 um cell-strainer. The cell-density is quantified using a hemacytometer, and dilutions are made to allow for the plating of 50000 cells/well/100 uL in 96-well PDL-coated plates. Plates are incubated for 4-5 hours in 37° C./5% CO2-incubator, after which time the entire volume is exchanged to feeding medium (NeuroBasal/2% B-27 Serum-free supplement/0.5 mM L-Glutamine/1% Penicillin-Streptomycin (Invitrogen Corporation)). The cultures undergo two 50% fresh feeding medium exchanges at 3 days in vitro (DIV3), and again at DIV7.
Compounds for testing are resuspended in dimethyl sulphoxide (DMSO), and further diluted in DMSO for a ten-point dose-response curve, with appropriate controls. Each master plate is assayed in triplicate. […] Three DIV9 culture plates are leveled to 50 uL/well, onto which each has overlaid 50 uL/well of the diluted daughter plate. The plates are returned to the 37° C./5% CO2-incubator for 16-18 hours.
The next step of the assay involves the exposure of a HDAC colorimetric substrate, comprising an acetylated lysine side chain, to the compound-treated neuronal cultures. Based on the ability of the compound to inhibit HDAC activity in the neuronal cultures, the substrate is deacetylated by HDACs, and subsequently sensitized. […] Compound-incubated culture plates are again leveled to 50 uL/well and 2 uL/well of 7.5 mM BOC-Lys (Ac)-AMC substrate is added and thoroughly mixed. Plates are returned to the 37° C./5% CO2-incubator for 1 hour.
The final addition to the culture plates entails treatment with a Fluor de LyS™-based developer (BIOMOL Research Laboratories, Inc.) to produce a fluorophore, which is analyzed using a spectrophotometer. The developer solution (1× Fluor de Lys™/1% NP-40/1 uM TSA in HDAC Buffer Solution) is prepared, and 50 uL/well is added to each of the wells of the culture plates. […] The plates are returned to the 37° C./5% CO2-incubator for 10-15 minutes, after which time, they are removed and set in the dark at room temperature for 5-10 minutes.

[3] = Table 10, read-out: HDAC Inhibition (IC50 μM) HDAC Enzyme
[4] = Table 10, whole-cell, read-out: HDAC Inhibition (IC50 μM) WC mouse cortical neurons
[5] = Table 9, read-out: HDAC Inhibition (IC50 μM) HDAC Enzyme

Compound: O=C(NO)c1ccc(OCCN2C(=O)c3ccccc3Oc3ccccc32)c(F)c1
- IC50 [1, 3]: 0.05 to 0.1 µM
- IC50 [2, 4]: < 1 µM

Compound: O=C(NO)c1ccc(OCCN2C(=O)c3cc(F)ccc3Oc3ccccc32)cc1
- IC50 [1, 3]: < 0.05 µM
- IC50 [2, 4]: < 1 µM

Compound: O=C(NO)c1ccc(OCCN2C(=O)c3ccccc3Oc3cc(Cl)ccc32)cc1
- IC50 [1, 3]: < 0.05 µM
- IC50 [2, 4]: 1 to 5 µM

Compound: O=C(NO)c1ccc(OCC(=O)N2Cc3ccccc3Oc3ccccc32)cc1
- IC50 [1, 3]: 0.1 to 1 µM
- IC50 [2, 4]: 1 to 5 µM

Compound: O=C(NO)c1cccc(OCCN2C(=O)c3ccccc3Oc3ccccc32)c1
- IC50 [1, 3]: 0.1 to 1 µM
- IC50 [2, 4]: > 15 µM

Compound: O=C(NO)c1ccc(OCCN2C(=O)c3ccccc3Oc3ccccc32)cc1
- IC50 [1, 3]: < 0.05 µM
- IC50 [2, 4]: < 1 µM

Compound: CN1CCC2=C(C1)Oc1ccccc1N(CCOc1ccc(C(=O)NO)cc1)C2=O
- IC50 [1, 3]: < 0.05 µM
- IC50 [2, 4]: < 1 µM

Compound: O=C(NO)c1ccc(OCCN2C(=O)CCOc3ccccc32)cc1
- IC50 [1, 3]: < 0.05 µM
- IC50 [2, 4]: < 1 µM

Compound: O=C(NO)c1ccc(OCCN2CCOc3ccccc3C2=O)cc1
- IC50 [1, 3]: < 0.05 µM
- IC50 [2, 4]: 1 to 5 µM

Compound: O=C(NO)c1ccc(OCCN2C(=O)c3cccnc3Oc3ccccc32)cc1
- IC50 [1, 3]: < 0.05 µM
- IC50 [2, 4]: < 1 µM

Compound: O=C(NO)c1ccc(OCCN2C(=O)c3ccncc3Oc3ccccc32)cc1
- IC50 [1, 3]: < 0.05 µM
- IC50 [2, 4]: < 1 µM

Compound: O=C(NO)c1ccc(C2=Nc3ccccc3Oc3ccsc32)cc1 [(Z)-4-(benzo[b]thieno[2,3-f][1,4]oxazepin-10-yl)-N-hydroxybenzamide]
- IC50 ([1]; read-out: HDAC Inhibtion (IC50 μM) HDAC Enzyme): < 0.05 µM
- IC50 ([2]; whole cell, read-out: HDAC Inhibtion (IC50 μM) WC mouse cortical neurons): 1 to 5 µM

Compound: O=C(NO)c1ccc(N2C[C@@H]3C[C@H]2CN3c2cccc(C(F)(F)F)c2)cc1 [N-hydroxy-4-((1S,4S)-5-(3-(trifluoromethyl)phenyl)-2,5-diazabicyclo[2.2.1]heptan-2-yl)benzamide]
- IC50 [1, 5]: 0.1 to 1 µM

Compound: O=C(NO)c1ccc(N2C[C@@H]3C[C@H]2CN3c2cc(C(F)(F)F)ccn2)cc1 [N-hydroxy-4-((1S,4S)-5-(4-(trifluoromethyl)pyridin-2-yl)-2,5-diazabicyclo[2.2.1]heptan-2-yl)benzamide]
- IC50 [1, 5]: 0.1 to 1 µM

Compound: Cc1ccc(N2C[C@@H]3C[C@H]2CN3c2ccc(C(=O)NO)cc2)cc1 [N-hydroxy-4-((1S,4S)-5-p-tolyl-2,5-diazabicyclo[2.2.1]heptan-2-yl)benzamide]
- IC50 [1, 5]: 0.1 to 1 µM

Compound: O=C(NO)c1ccc(Cn2c(-c3ccccc3)cc3ccccc32)cc1 [N-hydroxy-4-((2-phenyl-1H-indol-1-yl)methyl)benzamide]
- IC50 [1, 3]: 0.1 to 1 µM

Compound: O=C(NO)c1ccc(CN2C(=O)c3ccccc3CCc3ccccc32)cc1 [N-hydroxy-4-((6-oxo-11,12-dihydrodibenzo[b,f]azocin-5(6H)-yl)methyl)benzamide]
- IC50 [1, 3]: 0.1 to 1 µM

Compound: O=C(NO)c1ccc(Cn2c(=O)c3ccccc3c3ccccc32)cc1 [N-hydroxy-4-((6-oxophenanthridin-5(6H)-yl)methyl)benzamide]
- IC50 [1, 3]: < 0.05 µM

Compound: O=C(NO)c1ccc(CN2C(=O)c3ccccc3Oc3ccccc32)cc1 [N-hydroxy-4-((11-oxodibenzo[b,f][1,4]oxazepin-10(11H)-yl)methyl)benzamide]
- IC50 [1, 3]: < 0.05 µM

Compound: O=C(NO)c1cnc(N2C[C@@H]3C[C@H]2CN3c2cccc(C(F)(F)F)c2)cn1 [N-hydroxy-5-((1S,4S)-5-(3-(trifluoromethyl)phenyl)-2,5-diazabicyclo[2.2.1]heptan-2-yl)pyrazine-2-carboxamide]
- IC50 [1, 5]: 0.1 to 1 µM

Compound: Cc1ccc(N2CC3CC2CN3c2ccc(C(=O)NO)cn2)cc1 (centres unmarked) [N-hydroxy-6-(5-p-tolyl-2,5-diazabicyclo[2.2.1]heptan-2-yl)nicotinamide]
- IC50 [1, 5]: < 0.05 µM

Compound: O=C(CCCCCN1C(=O)c2ccccc2Oc2ccccc21)NO [N-hydroxy-6-(11-oxodibenzo[b,f][1,4]oxazepin-10(11H)-yl)hexanamide]
- IC50 [1, 3]: < 0.05 µM

Compound: O=C(NO)c1ccc(N2C[C@@H]3C[C@H]2CN3c2cccc(C(F)(F)F)c2)nn1 [N-hydroxy-6-((1S,4S)-5-(3-(trifluoromethyl)phenyl)-2,5-diazabicyclo[2.2.1]heptan-2-yl)pyridazine-3-carboxamide]
- IC50 [1, 5]: 0.1 to 1 µM

Compound: O=C(CCCCCCn1c(=O)c2ccccc2c2ccccc21)NO [N-hydroxy-7-(6-oxophenanthridin-5(6H)-yl)heptanamide]
- IC50 [1, 3]: < 0.05 µM

Compound: O=C(CCCCCCN1C(=O)c2ccccc2Oc2ccccc21)NO [N-hydroxy-7-(11-oxodibenzo[b,f][1,4]oxazepin-10(11H)-yl)heptanamide]
- IC50 [1, 3]: < 0.05 µM

Compound: O=C(CCCCCCN1C(=O)c2ccccc2Sc2ccccc21)NO [N-hydroxy-7-(11-oxodibenzo[b,f][1,4]thiazepin-10(11H)-yl)heptanamide]
- IC50 [1, 3]: < 0.05 µM

Compound: O=C(CCCCCCOc1nc2ccccc2c2ccccc12)NO [N-hydroxy-7-(phenanthridin-6-yloxy)heptanamide]
- IC50 [1, 3]: < 0.05 µM

Compound: O=C(CCCCCCCN1C(=O)c2ccccc2Oc2ccccc21)NO [N-hydroxy-8-(11-oxodibenzo[b,f][1,4]oxazepin-10(11H)-yl)octanamide]
- IC50 [1, 3]: 0.05 to 0.1 µM

Compound: O=C(NO)c1cc2c(cn1)[nH]c1ccccc12 [N-hydroxy-9H-pyrido[3,4-b]indole-3-carboxamide]
- IC50 [1, 3]: 1 to 10 µM

Compound: O=CN(O)CCCCCCN1C(=O)c2ccccc2Oc2ccccc21 [N-hydroxy-N-(6-(11-oxodibenzo[b,f][1,4]oxazepin-10(11H)-yl)hexyl)formamide]
- IC50 [1, 3]: < 0.05 µM

Compound: O=C(NO)c1cnc(N2CCCN(C(=O)OCc3ccccc3)CC2)nc1 [benzyl 4-(5-(hydroxycarbamoyl)pyrimidin-2-yl)-1,4-diazepane-1-carboxylate]
- IC50 [1, 3]: 0.05 to 0.1 µM

Compound: (Z)-N-(5H-dibenzo[b,f]azepin-5-yl)methyl)benzyl)-N-hydroxyformamide
- IC50 [1, 3]: 0.1 to 1 µM
